Target: T1, human TrkA receptor (Homo sapiens, UniProt P04629)
T1 construct: host or cells: U2OS cells (PathHunter cell line)
Assay: DiscoverX PathHunter TrkA functional assay (NGF-stimulated U2OS cells)
Type: cell-based
Conditions: U2OS cells expressing human TrkA-PK, Shc1-EA and p75NTR; compound 1 h, then NGF at ~80% of maximal response for 3 h; luminescence
Experimental: TrkA functional activity was measured using a DiscoverX PathHunter assay. In this assay, U2OS cells express the human TrkA receptor as a fusion with the weakly complementing fragment of B-galactosidase, which DiscoverX calls “Prolink (PK)”; additionally, Shc1 is fused with a larger fragment, which is called “Enzyme Acceptor (EA)”. Activation of the TrkA receptor, upon NGF addition, results in the kinase domain being phosphorylated, resulting in subsequent recruitment of Shc1-EA protein. That recruitment results in an active B-galactosidase enzyme that is detected by addition of a chemiluminescent substrate. The human p75^NTR protein was also expressed as a co-receptor for NGF.
All reagents were purchased from DiscoverX, except for the receptor agonists (NGF, BDNF, NT3) which were purchased from Peprotech. Cells were expanded and frozen into cryovials, and stored in the vapor phase of liquid nitrogen, and thawed immediately before use. Thawed cells were added to a 384-well plate at 7500 cells/well, and allowed to incubate overnight. Compound at various concentrations was added the following morning and allowed to incubate on cells for 1 h. Then, NGF was added at a concentration sufficient to elicit ˜80% of a maximal response and allowed to incubate for 3 h at ambient temperature. DiscoverX PathHunter detection reagent was then added and the plate was further incubated for 1 h in the dark. The plate was then read via luminescence on the Perkin Elmer Envision.

T1 sequence (P04629 33-796): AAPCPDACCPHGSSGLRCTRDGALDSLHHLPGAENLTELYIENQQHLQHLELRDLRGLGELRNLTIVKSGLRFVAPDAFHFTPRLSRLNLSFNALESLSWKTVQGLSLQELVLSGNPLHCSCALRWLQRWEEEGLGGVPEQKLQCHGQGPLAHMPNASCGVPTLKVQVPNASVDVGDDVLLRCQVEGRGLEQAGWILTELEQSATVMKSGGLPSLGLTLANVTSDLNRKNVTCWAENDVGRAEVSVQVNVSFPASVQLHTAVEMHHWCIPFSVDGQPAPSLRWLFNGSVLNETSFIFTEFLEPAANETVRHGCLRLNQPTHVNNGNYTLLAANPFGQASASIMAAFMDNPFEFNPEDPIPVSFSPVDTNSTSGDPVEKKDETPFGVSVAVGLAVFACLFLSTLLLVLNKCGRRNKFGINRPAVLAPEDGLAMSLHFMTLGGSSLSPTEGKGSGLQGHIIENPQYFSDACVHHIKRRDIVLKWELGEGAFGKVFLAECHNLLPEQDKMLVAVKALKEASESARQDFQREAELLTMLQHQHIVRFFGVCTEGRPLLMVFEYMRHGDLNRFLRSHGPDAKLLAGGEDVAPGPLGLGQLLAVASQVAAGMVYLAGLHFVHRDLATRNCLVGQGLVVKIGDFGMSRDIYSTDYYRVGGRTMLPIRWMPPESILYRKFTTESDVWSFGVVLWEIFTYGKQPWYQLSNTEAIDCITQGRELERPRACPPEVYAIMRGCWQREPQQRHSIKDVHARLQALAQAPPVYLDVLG

SMILES	IC50 [nM]
Cn1ccc(-c2cc(C(=O)Nc3c(-c4ccccc4)nc4cc(CNS(C)(=O)=O)ccn34)ccc2C(F)(F)F)n1 [Compound 84, 3-(1-methyl-1H-pyrazol-3-yl)-N-(7-{[(methylsulfonyl)amino]methyl}-2-phenylimidazo[1,2-a]pyridin-3-yl)-4-(trifluoromethyl) benzamide]	3.1
O=C(Nc1c(-c2ccccc2)nn2ccccc12)c1cc(-c2ncccn2)c(C(F)(F)F)cc1F [Compound 85, 2-fluoro-N-(2-phenylpyrazolo[1,5-a]pyridin-3-yl)-5-pyrimidin-2-yl-4-(trifluoromethyl) benzamide]	5
N#Cc1ccc2[nH]c(-c3ccccc3)c(NC(=O)c3cc(-c4ncccn4)c(C(F)(F)F)cc3F)c2c1 [Compound 86, N-(5-cyano-2-phenyl-1H-indol-3-yl)-2-fluoro-5-pyrimidin-2-yl-4-(trifluoromethyl) benzamide]	2.6
Cc1csc(-c2ccn3c(NC(=O)c4ccc(C(F)(F)F)c(-c5ccn(C)n5)c4)c(-c4ccccc4)nc3c2)n1 [Compound 87, 3-(1-methyl-1H-pyrazol-3-yl)-N-[7-(4-methyl-1,3-thiazol-2-yl)-2-phenylimidazo[1,2-a]pyridin-3-yl]-4-(trifluoromethyl) benzamide]	0.68
Cn1ccc(-c2cc(C(=O)Nc3c(-c4ccccc4)nc4cc(N5CCOCC5)ccn34)ccc2C(F)(F)F)n1 [Compound 88, 3-(1-methyl-1H-pyrazol-3-yl)-N-(7-morpholin-4-yl-2-phenylimidazo[1,2-a]pyridin-3-yl)-4-(trifluoromethyl) benzamide]	1.2
Cn1ccc(-c2cc(C(=O)Nc3c(-c4ccccc4)nc4cc(N5CCCC5)ccn34)ccc2C(F)(F)F)n1 [Compound 89, 3-(1-methyl-1H-pyrazol-3-yl)-N-(2-phenyl-7-pyrrolidin-1-ylimidazo[1,2-a]pyridin-3-yl)-4-(trifluoromethyl) benzamide]	5
Cn1ccc(-c2cc(C(=O)Nc3c(-c4ccccc4)nc4cc(N5CCNCC5)ccn34)ccc2C(F)(F)F)n1 [Compound 90, 3-(1-methyl-1H-pyrazol-3-yl)-N-(2-phenyl-7-piperazin-1-ylimidazo[1,2-a]pyridin-3-yl)-4-(trifluoromethyl) benzamide]	3.8
O=C(O)c1ccc2[nH]c(-c3ccccc3)c(NC(=O)c3cc(-c4ncccn4)c(C(F)(F)F)cc3F)c2c1 [Compound 91, 3-({[2-fluoro-5-pyrimidin-2-yl-4-(trifluoromethyl)phenyl]carbonyl}amino)-2-phenyl-1H-indole-5-carboxylic acid]	11
NC(=O)c1ccc2[nH]c(-c3ccccc3)c(NC(=O)c3cc(-c4ncccn4)c(C(F)(F)F)cc3F)c2c1 [Compound 92, 3-({[2-fluoro-5-pyrimidin-2-yl-4-(trifluoromethyl)phenyl]carbonyl}amino)-2-phenyl-1H-indole-5-carboxamide]	8.7
Cc1cc(C(F)(F)F)c(-c2ccn(C)n2)cc1C(=O)Nc1c(-c2ccccc2)nc2cc([C@@H](C)O)ccn12 [Compound 93, N-{7-[(1R)-1-hydroxyethyl]-2-phenylimidazo[1,2-a]pyridin-3-yl}-2-methyl-5-(1-methyl-1H-pyrazol-3-yl)-4-(trifluoromethyl) benzamide]	4.7
Cn1ccc(-c2cc(C(=O)Nc3c(-c4ccccc4)nn4ccc(C(C)(C)O)cc34)ccc2C(F)(F)F)n1 [Compound 96, N-[5-(1-hydroxy-1-methylethyl)-2-phenylpyrazolo[1,5-a]pyridin-3-yl]-3-(1-methyl-1H-pyrazol-3-yl)-4-(trifluoromethyl) benzamide]	6.7
Cn1ccc(-c2cc(C(=O)Nc3c(-c4ccccc4)nc4cc(CCO)ccn34)ccc2C(F)(F)F)n1 [Compound 99, N-[7-(2-hydroxyethyl)-2-phenylimidazo[1,2-a]pyridin-3-yl]-3-(1-methyl-1H-pyrazol-3-yl)-4-(trifluoromethyl) benzamide]	2.1
Cn1ccc(-c2cc(C(=O)Nc3c(-c4ccccc4)nc4cc(CCN)ccn34)ccc2C(F)(F)F)n1 [Compound 100, N-[7-(2-aminoethyl)-2-phenylimidazo[1,2-a]pyridin-3-yl]-3-(1-methyl-1H-pyrazol-3-yl)-4-(trifluoromethyl) benzamide]	13
CC(=O)NCCc1ccn2c(NC(=O)c3ccc(C(F)(F)F)c(-c4ccn(C)n4)c3)c(-c3ccccc3)nc2c1 [Compound 101, N-{7-[2-(acetylamino)ethyl]-2-phenylimidazo[1,2-a]pyridin-3-yl}-3-(1-methyl-1H-pyrazol-3-yl)-4-(trifluoromethyl) benzamide]	10
Cn1ccc(-c2cc(C(=O)Nc3c(-c4ccccc4)nc4cc(CCNS(C)(=O)=O)ccn34)ccc2C(F)(F)F)n1 [Compound 102, 3-(1-methyl-1H-pyrazol-3-yl)-N-(7-{2-[(methylsulfonyl)amino]ethyl}-2-phenylimidazo[1,2-a]pyridin-3-yl)-4-(trifluoromethyl) benzamide]	4.3
Cn1ccc(-c2cc(C(=O)Nc3c(-c4ccccc4)nn4ccc(C(C)(C)O)cc34)c(F)cc2C(F)(F)F)n1 [Compound 103, 2-fluoro-N-[5-(1-hydroxy-1-methylethyl)-2-phenylpyrazolo[1,5-a]pyridin-3-yl]-5-(1-methyl-1H-pyrazol-3-yl)-4-(trifluoromethyl) benzamide]	0.94
COC(=O)NCCc1ccn2c(NC(=O)c3ccc(C(F)(F)F)c(-c4ccn(C)n4)c3)c(-c3ccccc3)nc2c1 [Compound 104, methyl{2-[3-({[3-(1-methyl-1H-pyrazol-3-yl)-4-(trifluoromethyl)phenyl]carbonyl}amino)-2-phenylimidazo[1,2-a]pyridin-7-yl]ethyl}carbamate]	1.7
O=C(Nc1c(-c2ccccc2)nc2ccccn12)c1cc(-c2ncccn2)c(C(F)(F)F)cc1F [Compound 105, 2-fluoro-N-(2-phenylimidazo[1,2-a]pyridin-3-yl)-5-pyrimidin-2-yl-4-(trifluoromethyl) benzamide]	1.4
Cn1ccc(-c2cc(C(=O)Nc3c(-c4ccccc4)[nH]c4ccc(C#N)cc34)c(F)cc2C(F)(F)F)n1 [Compound 108, N-(5-cyano-2-phenyl-1H-indol-3-yl)-2-fluoro-5-(1-methyl-1H-pyrazol-3-yl)-4-(trifluoromethyl) benzamide]	1
CNCCc1ccn2c(NC(=O)c3ccc(C(F)(F)F)c(-c4ccn(C)n4)c3)c(-c3ccccc3)nc2c1 [Compound 109, N-{7-[2-(methylamino)ethyl]-2-phenylimidazo[1,2-a]pyridin-3-yl}-3-(1-methyl-1H-pyrazol-3-yl)-4-(trifluoromethyl) benzamide]	169
Cn1ccc(-c2cc(C(=O)Nc3c(-c4ccccc4)[nH]c4ccc(C(=O)O)cc34)c(F)cc2C(F)(F)F)n1 [Compound 110, 3-({[2-fluoro-5-(1-methyl-1H-pyrazol-3-yl)-4-(trifluoromethyl)phenyl]carbonyl}amino)-2-phenyl-1H-indole-5-carboxylic acid]	3.6
Cn1ccc(-c2cc(C(=O)Nc3c(-c4ccccc4)nn4cc(C#N)ccc34)c(F)cc2C(F)(F)F)n1 [Compound 111, N-(6-cyano-2-phenylpyrazolo[1,5-a]pyridin-3-yl)-2-fluoro-5-(1-methyl-1H-pyrazol-3-yl)-4-(trifluoromethyl) benzamide]	1000
C[C@@H](O)c1ccn2c(NC(=O)c3cc(-c4ccn(C)n4)c(C(F)(F)CF)cc3F)c(-c3ccccc3)nc2c1 [Compound 115, 2-fluoro-N-{7-[(1R)-1-hydroxyethyl]-2-phenylimidazo[1,2-a]pyridin-3-yl}-5-(1-methyl-1H-pyrazol-3-yl)-4-(1,1,2-trifluoroethyl)benzamide]	3.7

Source: patent US9862716B2, “TRKA kinase inhibitors, compositions and methods thereof” (Merck Sharp & Dohme Corp., priority 2014, dated 2018)
